Source: PMC11971462, “Generation and validation of a novel multitarget small molecule in glioblastoma” (Cell Death & Disease, 2025)
Like-named read-outs stand apart in the source and are kept apart here.

Tested on: GNS166 cells

C#CCN(Cc1cc2cc(OCCCN3CCCCC3)ccc2n1S(=O)(=O)c1ccccc1)C(=O)CCCCCCC(=O)NO [DDI]
PCBP3 log2FoldChange: 5.457 | PCDH15 log2FoldChange: 3.424 | PCDH19 log2FoldChange: 2.11 | PCDHA13 log2FoldChange: 3.483 | PCOLCE2 log2FoldChange: 2.03 | PCP4L1 log2FoldChange: 4.897 | PCSK1 log2FoldChange: 3.118 | PDE2A log2FoldChange: 2.038 | PDE3A log2FoldChange: 2.332 | PDE4C log2FoldChange: 2.296 | PDK4 log2FoldChange: 2.588 | PDX1 log2FoldChange: 3.554 | PLA2G4A log2FoldChange: 2.126 | PLCXD2 log2FoldChange: 2.533 | PLEK2 log2FoldChange: 2.459 | PLEKHA6 log2FoldChange: 2.086 | PLP1 log2FoldChange: 2.506 | PPM1N log2FoldChange: 2.335 | PPP1R1B log2FoldChange: 4.39 | PPP1R16B log2FoldChange: 3.376 | PPP4R4 log2FoldChange: 3.111 | PRR29 log2FoldChange: 3.599 | PRRX2 log2FoldChange: 2.314 | PRSS3 log2FoldChange: 3.932 | PSD2 log2FoldChange: 3.562 | PSG1 log2FoldChange: 5.24 | PSG4 log2FoldChange: 4.564 | PSG5 log2FoldChange: 4.838 | PSG9 log2FoldChange: 3.658 | PTGS1 log2FoldChange: 4.0843 | PTPN5 log2FoldChange: 4.236 | PTPRO log2FoldChange: 3.032 | PTPRQ log2FoldChange: 3.237 | QPRT log2FoldChange: 2.003 | RAB39A log2FoldChange: 2.508 | RADX log2FoldChange: 2.3792 | RAET1G log2FoldChange: 2.196 | RAP1GAP log2FoldChange: 2.521 | RARB log2FoldChange: 2.002 | RASD2 log2FoldChange: 3.718 | RASIP1 log2FoldChange: 2.128 | RDH12 log2FoldChange: 3.657 | REM1 log2FoldChange: 2.662 | RFPL4A log2FoldChange: 5.081 | RFTN2 log2FoldChange: 4.233 | RGS9 log2FoldChange: 5.175 | RIMBP2 log2FoldChange: 6.452 | RIMS4 log2FoldChange: 5.004 | RNF165 log2FoldChange: 3.79 | RUNDC3A log2FoldChange: 4.619 | S100B log2FoldChange: 3.045 | SAMD11 log2FoldChange: 4.391 | SCEL log2FoldChange: 2.003 | SCIN log2FoldChange: 3.412 | SCN3A log2FoldChange: 2.697 | SCN4B log2FoldChange: 2.757 | SCN5A log2FoldChange: 2.371 | SCN9A log2FoldChange: 2.594 | SCUBE1 log2FoldChange: 7.641 | SEMA3F log2FoldChange: 2.777 | SEMA5A log2FoldChange: 2.383 | SERPING1 log2FoldChange: 4.327 | SERPINI1 log2FoldChange: 3.966 | SERTM1 log2FoldChange: 2.165 | SGIP1 log2FoldChange: 2.3607 | SH2D3C log2FoldChange: 5.237 | SHANK1 log2FoldChange: 6.717 | SHF log2FoldChange: 2.222 | SHISA7 log2FoldChange: 4.7 | SLC4A5 log2FoldChange: 2.594 | SLC6A17 log2FoldChange: 2.657 | SLC7A2 log2FoldChange: 3.19 | SLC7A10 log2FoldChange: 6.012 | SLC8A2 log2FoldChange: 4.387 | SLC9A9 log2FoldChange: 2.124 | SLC16A12 log2FoldChange: 2.212 | SLC22A31 log2FoldChange: 5.211 | SLC25A27 log2FoldChange: 5.956 | SLC44A3 log2FoldChange: 2.701 | SLC45A1 log2FoldChange: 2.018 | SLIT2 log2FoldChange: 2.219 | SLITRK3 log2FoldChange: 2.145 | SMPDL3B log2FoldChange: 3.134 | SNCB log2FoldChange: 4.848 | SNX22 log2FoldChange: 2.0694 | SNX32 log2FoldChange: 2.323 | SOBP log2FoldChange: 2.326 | SPANXC log2FoldChange: 2.711 | SPINK2 log2FoldChange: 3.038 | SPNS2 log2FoldChange: 3.326 | SSTR2 log2FoldChange: 2.236 | ST3GAL5 log2FoldChange: 2.386 | ST6GALNAC3 log2FoldChange: 2.853 | STAT4 log2FoldChange: 3.605 | STC1 log2FoldChange: 3.854 | STMN3 log2FoldChange: 2.874 | STUM log2FoldChange: 6.45 | STX1B log2FoldChange: 2.758 | STXBP5L log2FoldChange: 2.17 | SYNPO2 log2FoldChange: 2.428 | SYP log2FoldChange: 4.307 | SYT2 log2FoldChange: 5.115 | SYT5 log2FoldChange: 6.667 | SYT13 log2FoldChange: 2.882 | SYTL3 log2FoldChange: 2.536 | TAGLN3 log2FoldChange: 3.305 | TBC1D8B log2FoldChange: 2.1255 | TCEAL5 log2FoldChange: 4.062 | TCIM log2FoldChange: 3.258 | TEC log2FoldChange: 4.937 | TEKT3 log2FoldChange: 2.698 | TESC log2FoldChange: 5.269 | TEX19 log2FoldChange: 3.325 | THSD7B log2FoldChange: 3.117 | TJP3 log2FoldChange: 5.915 | TLCD3B log2FoldChange: 2.485 | TLR9 log2FoldChange: 2.809 | TLX2 log2FoldChange: 2.462 | TMEM47 log2FoldChange: 2.003 | TMEM74B log2FoldChange: 3.647 | TMEM74 log2FoldChange: 4.084 | TMEM92 log2FoldChange: 3.463 | TMEM139 log2FoldChange: 3.161 | TMEM145 log2FoldChange: 3.464 | TMEM151B log2FoldChange: 3.192 | TMEM156 log2FoldChange: 3.7131 | TMOD1 log2FoldChange: 2.144 | TNFSF18 log2FoldChange: 2.976 | TNNI3 log2FoldChange: 7.061 | TRPC4 log2FoldChange: 3.104 | TTYH1 log2FoldChange: 4.78 | TUBA3C log2FoldChange: 6.251 | TUSC3 log2FoldChange: 3.3304 | UNC5B log2FoldChange: 3.5878 | USH1G log2FoldChange: 7.012 | VAV3 log2FoldChange: 2.016 | VGLL2 log2FoldChange: 2.35 | VTCN1 log2FoldChange: 4.133 | VWA1 log2FoldChange: 2.457 | WNT2B log2FoldChange: 2.031 | WNT10B log2FoldChange: 3.628 | WSCD1 log2FoldChange: 2.865 | XYLT1 log2FoldChange: 5.474 | YPEL4 log2FoldChange: 2.644 | ZCCHC12 log2FoldChange: 2.836 | ZDHHC11B log2FoldChange: 2.194 | ZDHHC22 log2FoldChange: 3.089 | ZFP92 log2FoldChange: 2.85 | ZMYND10 log2FoldChange: 2.335 | ZNF208 log2FoldChange: 3.37 | Direction (gene ALOX15B): Up | Direction (gene AMBN): Up | Direction (gene APELA): Up | Direction (gene ATP2B3): Up | Direction (gene B3GALT5): Up | Direction (gene BCL11B): Up | Direction (gene BRS3): Up | Direction (gene CA4): Up | Direction (gene CA7): Up | Direction (gene CAPNS2): Up | Direction (gene CCN5): Up | Direction (gene CD1D): Up | Direction (gene CDC20B): Up | Direction (gene CELF4): Up | Direction (gene CES1): Up | Direction (gene CFAP52): Up | Direction (gene CHRNA3): Up | Direction (gene CRB1): Up | Direction (gene CSAG1): Up | Direction (gene CSDC2): Up | Direction (gene CUX2): Up | Direction (gene CXorf51A): Up | Direction (gene DES): Up | Direction (gene DGKK): Up | Direction (gene EBF2): Up | Direction (gene EREG): Up | Direction (gene FAM9C): Up | Direction (gene FAM166A): Up | Direction (gene FER1L5): Up | Direction (gene FGD3): Up | Direction (gene FRG2): Up | Direction (gene FRMD7): Up | Direction (gene GAS7): Up | Direction (gene GMNC): Up | Direction (gene GOLGA8F): Up | Direction (gene GREM2): Up | Direction (gene GUCY2F): Up | Direction (gene HOXC13): Up | Direction (gene IBSP): Up | Direction (gene IRAG1): Up | Direction (gene IRF6): Up | Direction (gene KANK3): Up | Direction (gene KCNA1): Up | Direction (gene KCNH6): Up | Direction (gene KCNK5): Up | Direction (gene KCNK15): Up | Direction (gene KCNN2): Up | Direction (gene KCNQ1): Up | Direction (gene LHFPL1): Up | Direction (gene LHX5): Up | Direction (gene LOC102723623): Up | Direction (gene LRRC15): Up | Direction (gene MAGEA2): Up | Direction (gene MAGEA2B): Up | Direction (gene MAGEA6): Up | Direction (gene MAPK15): Up | Direction (gene ME1): Up | Direction (gene MEIOSIN): Up | Direction (gene MMEL1): Up | Direction (gene MMP12): Up | Direction (gene MYL2): Up | Direction (gene NOS3): Up | Direction (gene NTRK1): Up | Direction (gene PAGE4): Up | Direction (gene PAX2): Up | Direction (gene PCDHA1): Up | Direction (gene PITX3): Up | Direction (gene PLAC1): Up | Direction (gene PLK5): Up | Direction (gene PLXDC1): Up | Direction (gene PNLIPRP3): Up | Direction (gene POU3F4): Up | Direction (gene PSG6): Up | Direction (gene PTPRN): Up | Direction (gene RPRML): Up | Direction (gene RSPO1): Up | Direction (gene SCN4A): Up | Direction (gene SCRT1): Up | Direction (gene SH2D3A): Up | Direction (gene SHH): Up | Direction (gene SIDT1): Up | Direction (gene SLC4A9): Up | Direction (gene SLC11A1): Up | Direction (gene SLC18A1): Up | Direction (gene SLC19A3): Up | Direction (gene SLC35F3): Up | Direction (gene SLC36A2): Up | Direction (gene STMN4): Up | Direction (gene STRC): Up | Direction (gene SYT1): Up | Direction (gene TAC3): Up | Direction (gene TMEM196): Up | Direction (gene TNIP3): Up | Direction (gene TSPAN18): Up | Direction (gene TTC9B): Up | Direction (gene UGT3A1): Up | Direction (gene UNC5A): Up | Direction (gene VWA3B): Up | Direction (gene ZBBX): Up | Direction (gene ZNF479): Up
